Consider six compounds from patent US9326978B2, “A3 adenosine receptor allosteric modulators” (The United States of America, Represented by the Secretary, …, priority 2006, dated 2016).

The target in data set [1] is T1, human A3ARs (Homo sapiens (Human), UniProt P0DMS8). The data set can be described thus: Cyclic AMP accumulation assay, efficacy at hA3AR. The following applies: compared to maximal effect by 2-Cl-IB-MECA alone (control = 100%). Format: cell-based. The method, then: Intracellular cyclic AMP levels were measured with a competitive protein binding method (Nordstedt and Fredholm, 1990). CHO cells that expressed recombinant human A3ARs were harvested by trypsinization. After centrifugation and resuspension in medium, cells were plated in 24-well plates in 0.5 ml medium. After 24 hr, the medium was removed and cells were washed three times with 1 ml DMEM, containing 50 mM HEPES, pH 7.4. Cells were then treated with agonists and/or test compounds in the presence of rolipram (10 μM) and adenosine deaminase (3 units/ml). After 45 min forskolin (10 μM) was added to the medium, and incubation was continued an additional 15 min. The reaction was terminated by removing the supernatant, and cells were lysed upon the addition of 200 μL of 0.1 M ice-cold HCl. The cell lysate was resuspended and stored at −20° C. For determination of cyclic AMP production, protein kinase A (PKA) was incubated with [^3H]cyclic AMP (2 nM) in K2HPO4/EDTA buffer (K2HPO4, 150 mM; EDTA, 10 mM), 20 μL of the cell lysate, and 30 μL 0.1 M HCl or 50 μL of cyclic AMP solution (0-16 pmol/200 μL for standard curve). Bound radioactivity was separated by rapid filtration through Whatman GF/C filters and washed once with cold buffer. Bound radioactivity was measured by liquid scintillation spectrometry.
T1 sequence (P0DMS8 whole entry): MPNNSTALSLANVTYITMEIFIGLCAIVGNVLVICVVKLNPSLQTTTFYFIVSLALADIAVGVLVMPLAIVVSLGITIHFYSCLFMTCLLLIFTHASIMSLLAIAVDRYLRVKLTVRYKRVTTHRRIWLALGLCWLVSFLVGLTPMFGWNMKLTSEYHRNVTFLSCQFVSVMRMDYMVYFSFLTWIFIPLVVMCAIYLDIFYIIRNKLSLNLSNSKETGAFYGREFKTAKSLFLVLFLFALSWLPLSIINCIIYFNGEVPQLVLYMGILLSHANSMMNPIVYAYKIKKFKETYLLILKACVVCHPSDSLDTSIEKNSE

The next data set has as its target human A1AR (Homo sapiens (Human), UniProt P30542). The data set can be described thus: Binding assay to the human A1AR ([3H]R-PIA). Conditions: [3H]R-PIA (2.0 nM), CHO cells, Table 2; for inhibition at 10 µM: 1 h, read-out: hA1AR % displ. at 10 μM. The method, then:
(§1) CHO (Chinese hamster ovary) cells expressing the recombinant human ARs (HEK-293 cells were used for the human A2AAR) were cultured in DMEM and F12 (1:1) supplemented with 10% fetal bovine serum, 100 units/ml penicillin, […] streptomycin and 2 μmol/ml glutamine. Cells were harvested by trypsinization. After homogenization and suspension, cells were centrifuged at 500 g for 10 min, and the pellet was re-suspended in 50 mM Tris.HCl buffer (pH 7.4) containing 10 mM MgCl2. The suspension was homogenized with an electric homogenizer for 10 sec, and was then re-centrifuged at 20,000 g for 20 min at 4° C. The resultant pellets were resuspended in buffer in the presence of 3 Units/mL adenosine deaminase, and the suspension was stored at −80° C. until the binding experiments. The protein concentration was measured using the Bradford assay.
(§2) For binding to the human A1AR, [^3H]R-PIA (2 nM) was incubated with membranes (40 μg/tube) from CHO cells stably expressing the human A1AR at 25° C. for 60 min in 50 mM Tris.HCl buffer (pH 7.4; MgCl2, 10 mM) in a total assay volume of 200 μL. Nonspecific binding was determined using 10 μM of N^6-cyclopentyladenosine. For human A2A AR binding, membranes (20 μg/tube) from HEK-293 cells stably expressing the human A2A AR were incubated with 15 nM [^3H]CGS21680 at 25° C. for 60 min in 200 μL of 50 mM Tris.HCl, pH 7.4, containing 10 mM MgCl2. N-5′-ethyluronamidoadenosine (10 μM) was used to define nonspecific binding. Reaction was terminated by filtration with GF/B filters.

The target in data set [2] is T1, human A3ARs. In words: Dissociation kinetics of [125I]I-AB-MECA from human A3ARs. In kind it is binding. The following applies: 0.5 h, % decrease of dissociation at 30 min, residual binding of [125I]AB-MECA after 30 min = 100%, Table 2, read-out: hA3AR Ag. Dissociation at 10 μM. On the procedure:
The dissociation of [^125I]I-AB-MECA was measured as follows. Membranes (20 μg) were preincubated at 25° C. with 0.5 nM [^125I]I-AB-MECA, in a total volume of 100 μl of Tris-HCl buffer (50 mM, pH 8.0) containing 10 mM MgCl2, and 1 mM EDTA for 60 min. The dissociation was then initiated by the addition of 3 μM Cl-IB-MECA with or without allosteric modulators. The time course of dissociation of total binding was measured by rapid filtration at appropriate time intervals. Nonspecific binding was measured after 60-min incubation in the presence of 3 μM Cl-IB-MECA. Further assay was as described above.

For the next data set, the target named is human A2A AR (Homo sapiens (Human), UniProt P29274). The data set can be described thus: Binding assay to the human A2A AR ([3H]CGS21680). Conditions: [3H]CGS 21680 (15 nM), HEK293 cells, Table 2. The method, then: as §1, §2
Chain of human A2A AR (P29274 whole entry): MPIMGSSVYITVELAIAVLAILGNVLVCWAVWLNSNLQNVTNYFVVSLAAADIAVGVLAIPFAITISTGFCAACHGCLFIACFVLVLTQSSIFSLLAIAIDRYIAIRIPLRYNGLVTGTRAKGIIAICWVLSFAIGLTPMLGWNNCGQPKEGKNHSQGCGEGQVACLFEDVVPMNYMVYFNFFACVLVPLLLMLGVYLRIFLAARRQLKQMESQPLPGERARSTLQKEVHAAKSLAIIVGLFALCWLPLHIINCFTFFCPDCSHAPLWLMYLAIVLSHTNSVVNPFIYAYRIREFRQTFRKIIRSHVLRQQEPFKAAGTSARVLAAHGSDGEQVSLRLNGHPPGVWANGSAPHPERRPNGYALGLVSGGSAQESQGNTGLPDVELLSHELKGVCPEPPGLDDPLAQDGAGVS
For another data set, the target named is hA2BAR (Homo sapiens (Human), UniProt P29275). In words: Effect on NECA-induced cyclic AMP accumulation at A2B receptor. Note: NECA (150 nM)-induced cyclic AMP accumulation. In kind it is cell-based. The following applies: read-out: hA2BAR % inhib. at 10 μM.
Chain of hA2BAR (P29275 whole entry): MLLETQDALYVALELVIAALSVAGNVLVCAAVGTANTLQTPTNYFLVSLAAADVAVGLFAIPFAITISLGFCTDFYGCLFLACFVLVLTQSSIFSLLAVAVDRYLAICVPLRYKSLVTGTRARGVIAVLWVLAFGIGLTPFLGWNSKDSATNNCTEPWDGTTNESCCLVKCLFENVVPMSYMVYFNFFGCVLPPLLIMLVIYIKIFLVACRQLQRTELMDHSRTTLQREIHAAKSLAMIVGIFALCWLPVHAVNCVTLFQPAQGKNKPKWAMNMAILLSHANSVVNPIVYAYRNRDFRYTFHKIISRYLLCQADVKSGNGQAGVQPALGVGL
The next data set deals with human A3AR (Homo sapiens (Human), UniProt P0DMS8). The data set can be described thus: Competitive binding assay to the human A3AR ([125I]I-AB-MECA). The following applies: for inhibition at 10 µM: 1 h, read-out: hA3AR % displ. at 10 μM. On the procedure: as §1
Chain of human A3AR (P0DMS8 whole entry): as the sequence (P0DMS8 whole entry) above
Each tube in the competitive binding assay contained 100 μl membrane suspension (20 μg protein), 50 μl [^125I]-AB-MECA (0.5 nM), and 50 μl of increasing concentrations of the test ligands in Tris.HCl buffer (50 mM, pH 8.0) containing 10 mM MgCl2, 1 mM EDTA. Nonspecific binding was determined using 10 μM of 5′-N-ethylcarboxamidoadenosine in the buffer. The mixtures were incubated at 25° C. for 60 min. Binding reactions were terminated by filtration through Whatman GF/B filters under reduced pressure using a MT-24 cell harvester (Brandell, Gaithersburgh, Md., USA). Filters were washed three times with 9 mL ice-cold buffer. Radioactivity was determined in a Beckman 5500B γ-counter.

Setting [3] is: [125I]I-AB-MECA (0.5 nM), CHO cells, Table 2.

Each structure is given as a SMILES string. A value given as a limit tells only on which side of the number the result lay.

Chain of human A1AR (P30542 whole entry): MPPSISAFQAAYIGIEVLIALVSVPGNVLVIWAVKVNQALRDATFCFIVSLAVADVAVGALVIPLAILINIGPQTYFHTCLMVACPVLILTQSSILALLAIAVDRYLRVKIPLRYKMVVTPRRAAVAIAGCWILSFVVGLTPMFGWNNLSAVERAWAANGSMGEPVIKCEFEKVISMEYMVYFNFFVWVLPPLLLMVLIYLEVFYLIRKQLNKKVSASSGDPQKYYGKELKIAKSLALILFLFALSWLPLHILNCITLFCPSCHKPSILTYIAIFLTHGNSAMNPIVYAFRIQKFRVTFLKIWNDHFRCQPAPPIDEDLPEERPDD

`c1ccc2c(c1)nc(Nc1ccc3cc[nH]c3c1)c1nc(C3CCCC3)[nH]c12` [Compound 39, N-(1H-Indol-6-yl)-2-cyclopentyl-1H-imidazo[4,5-c]quinolin-4-amine] showed a melting point of 260 to 261 °C. Moreover, on human A3ARs [1], the “% Increase of efficacy at hA3AR at 10 μM” value stood at 125 ± 2%. In addition, the inhibition at 10 µM at human A1AR is 70%. For the same compound, at human A3ARs [2], the activity at 10 µM was 126 ± 9%. For the same compound, at human A2A AR, the “hA2AAR % displ. at 10 μM” value is on record as 74%. Further, the inhibition at 10 µM at hA2BAR was 10.1%. For the same compound, the inhibition at 10 µM on human A3AR (setting [3]) turned out to be 89%.
Take `Clc1ccc(Nc2nc3ccccc3c3[nH]c(C4CCCC4)nc23)cc1Cl` [Compound 33, N-(3,4-Dichloro-phenyl)-2-cyclopentyl-1H-imidazo[4,5-c]quinolin-4-amine]: the melting point is 114 to 115 °C. The “% Increase of efficacy at hA3AR at 10 μM” value at human A3ARs [1] is 141 ± 5%. The inhibition at 10 µM on human A1AR turned out to be 15%. For the same compound, on human A1AR (read-out: Ki(hA1AR)), the Ki was above 10 µM. Also, the activity at 10 µM at human A3ARs [2] was determined as 144 ± 9%. For the same compound, the “hA2AAR % displ. at 10 μM” value at human A2A AR is given as “(0%)”. For the same compound, the inhibition constant (Ki) at human A2A AR (read-out: Ki(hA2AAR)) was above 10 µM. For the same compound, the inhibition at 10 µM on hA2BAR is -6.7%. Moreover, on human A3AR (setting [3]), the inhibition at 10 µM worked out at 67%. The Ki at human A3AR ([125I]I-AB-MECA (0.5 nM), CHO cells, Table 2, read-out: Ki(hA3AR)) amounted to 4.69 ± 0.97 µM. The “affinity to orthosteric versus allosteric binding sites (selective affinity)” value on human A3AR (orthosteric sites of A1, A2A, A2B, A3 receptors vs allosteric site of A3 adenosine receptor) was “selective affinity”.
Turning to `CCCCCc1nc2c(Nc3ccc(Cl)c(Cl)c3)nc3ccccc3c2[nH]1` [Compound 47, N-(3,4-Dichloro-phenyl)-2-pentyl-1H-imidazo[4,5-c]quinolin-4-amine], the melting point fell in the range of 195 to 200 °C. For the same compound, the “% Increase of efficacy at hA3AR at 10 μM” value at human A3ARs [1] is listed as 102 ± 5%. For the same compound, the inhibition at 10 µM at human A1AR worked out at 43.9%. For the same compound, on human A3ARs [2], the activity at 10 µM was 116 ± 5%. For the same compound, the “hA2AAR % displ. at 10 μM” value on human A2A AR is listed as −1%. The inhibition at 10 µM on hA2BAR was -9.3%. In addition, at human A3AR (setting [3]), the inhibition at 10 µM worked out at 84%.
`c1ccc(CCNc2nc3ccccc3c3[nH]c(C4CCCC4)nc23)cc1` [Compound 41, N-(Phenylethyl)-2-cyclopentyl-1H-imidazo[4,5-c]quinolin-4-amine] had a melting point of 95 to 97 °C. Further, the “% Increase of efficacy at hA3AR at 10 μM” value on human A3ARs [1] is on record as 137 ± 4%. For the same compound, the inhibition at 10 µM at human A1AR was found to be 52%. In addition, the activity at 10 µM on human A3ARs [2] stood at 154 ± 7%. Further, the “hA2AAR % displ. at 10 μM” value on human A2A AR is given as 91%. Further, the inhibition at 10 µM on hA2BAR was -11.6%. Besides, the inhibition at 10 µM on human A3AR (setting [3]) worked out at 84%.
As for `c1ccc2c(c1)nc(Nc1ccc3cn[nH]c3c1)c1nc(C3CCCC3)[nH]c12` [Compound 37, N-(1H-indazol-6-yl)-2-cyclopentyl-1H-imidazo[4,5-c]quinolin-4-amine], the melting point lay in the range of 235 to 236 °C. Besides, the “% Increase of efficacy at hA3AR at 10 μM” value on human A3ARs [1] is 96 ± 2%. Further, the inhibition at 10 µM at human A1AR was found to be 56%. Also, the activity at 10 µM at human A3ARs [2] is 109 ± 3%. For the same compound, the “hA2AAR % displ. at 10 μM” value at human A2A AR came out at 68%. The inhibition at 10 µM at hA2BAR was determined as 5%. For the same compound, the inhibition at 10 µM at human A3AR (setting [3]) stood at 67%.
Take `Clc1ccc(Nc2nc3ccccc3c3[nH]cnc23)cc1Cl` [Compound 46, N-(3,4-Dichloro-phenyl)-2-1H-imidazo[4,5-c]quinolin-4-amine]: the melting point was in the range of 167 to 172 °C. In addition, the “% Increase of efficacy at hA3AR at 10 μM” value at human A3ARs [1] amounted to 92 ± 4%. Besides, the inhibition at 10 µM at human A1AR amounted to 1.8%. Besides, the activity at 10 µM at human A3ARs [2] stood at 91 ± 7%. In addition, the “hA2AAR % displ. at 10 μM” value at human A2A AR was −0.8%. Further, the inhibition at 10 µM on hA2BAR turned out to be 10.2%. In addition, the inhibition at 10 µM at human A3AR (setting [3]) was 39%.

For orientation: melting point means the temperature of the solid-liquid transition. As a reminder, the Ki is the equilibrium dissociation constant of an inhibitor or competing ligand from its target.
